Experimental data as given in patent US12239645B2, “Targeted dosing for the treatment of complement mediated disorders” (Achillion Pharmaceuticals, Inc., priority 2018, dated 2025).
Converted amounts (≈) assume the structure as drawn. Like-named read-outs stand apart in the source and are kept apart here.

Tests used:
[1] = Multiple ascending dose (MAD) study: multiple-dose pharmacokinetics; format: in vivo, human; settings: for concentration at 120 h: Day 6, 0 hr post-dose (120 h); for concentration at 120 h / concentration at 132 h / concentration at 144 h / concentration at 156 h / concentration at 168 h / concentration at 192 h / concentration at 288 h / concentration at 300 h / concentration at 312 h / concentration at 324 h: read-out: Pre-dose (trough) plasma concentration, Mean; for concentration at 132 h: Day 6, 12 hr post-dose (132 h); for concentration at 144 h: Day 7, 0 hr post-dose (144 h); for concentration at 156 h: Day 7, 12 hr post-dose (156 h); for concentration at 168 h: Day 8, 0 hr post-dose (168 h); for concentration at 192 h: Day 9, 0 hr post-dose (192 h); for concentration at 288 h: Day 13, 0 hr post-dose (288 h); for concentration at 300 h: Day 13, 12 hr post-dose (300 h); for concentration at 312 h: Day 14, 0 hr post-dose (312 h); for concentration at 324 h: Day 14, 12 hr post-dose (324 h)
Method: A multiple ascending dose (MAD) study of Compound 1 with two additional single-dose cohorts was also completed. […] Secondary objectives included evaluation of the pharmacokinetic (PK) profile and the relationship between Compound 1 PK and pharmacodynamic (PD) characteristics, that is, the inhibition of complement alternative pathway (AP) activity (PK/PD). In the MAD study, multiple-dose pharmacokinetics and pharmacodynamics of Compound 1 were evaluated in four dose groups administered Compound 1 (40, 80, 120 and 200 mg BID) in the fasted state for 14-days (Table 3). Eight subjects received active drug in each group; eight subjects received placebo in the first dose group (40 mg) and two subjects received placebo in each of the other three dose groups. Two additional cohorts were administered Compound 1 at single doses of 240 mg (fasted subjects) and 120 mg (fed subjects) (Table 3). The two single-dose cohorts each comprised six subjects receiving active drug and two subjects receiving placebo. Plasma and serum samples for PK and PD assessment were collected on selected days prior to dosing (at local troughs), and on days 1, 7, and 14 at 0.5-hour to 2-hour intervals for more detailed assessment.

[2] = tested on: complement alternative pathway (AP) activity; assay: MAD study: serum AP activity ex vivo by AP Wieslab assay; format: in vivo, human; settings: for % AUEC0-12 / DURATION0-12: Days 7 and 14 combined analysis
Method: Serum AP hemolysis activity was assessed in samples collected from all cohorts at predefined time points from Day 1 (pre-dose) through Day 21. Intense sampling was obtained on Day 1 (0 h to 12 h), Day 7 (0 h to 12 h), and Day 14 (0 h to 16 h); all other serum samples were collected at 0 h (morning PK troughs) on the indicated days. Activity for each cohort is shown for the complete time course Day 1-21 (FIG. 17), Day 1 (FIG. 18), Day 7 (FIG. 19) and Day 14 (FIG. 20). Serum complement AP activity measured ex vivo by the AP Wieslab assay, serum total complement classical pathway (CP) activity, plasma complement Bb concentrations, and serum FD, C3, and C4 concentrations were also measured at predefined time points.

[3] = human, plasma, oral, 120 mg, 120 mg BID
[4] = human, plasma, oral, 200 mg, 200 mg BID
[5] = Homo sapiens, sigmoidal model, multiple-dose cohorts

For `CC(=O)c1nn(CC(=O)N2[C@H](C(=O)Nc3nc(Br)ccc3C)C[C@@]3(C)C[C@@H]23)c2ccc(-c3cnc(C)nc3)cc12` [Compound 1, (1R,3S,5R)-2-(2-(3-acetyl-5-(2-methylpyrimidin-5-yl)-1H-indazol-1-yl)acetyl)-N-(6-bromo-3-methylpyridin-2-yl)-5-methyl-2-azabicyclo[3.1.0]hexane-3-carboxamide], the Tmax ([1]; human, plasma, oral, 120 mg, 120 mg BID × 14 Days, Day 7) was 1.75 h, the AUC(0-t) ([1]; human, plasma, oral, 120 mg, 120 mg BID × 14 Days, Day 7, read-out: AUC(0-12), Mean) was 3880 ng·h/mL and the AUC(0-t) ([1]; human, plasma, oral, 120 mg, 120 mg BID × 14 Days, Day 7, read-out: AUC(0-24), Mean) was 7750 ng·h/mL. It also gave a Cmax ([1]; human, plasma, oral, 120 mg, 120 mg BID × 14 Days, Day 7, read-out: Cmax, Mean) of 885 ng/mL, a Tmax ([1]; human, plasma, oral, 120 mg, 120 mg BID × 14 Days, Day 14) of 2.5 h and an AUC(0-t) ([1]; human, plasma, oral, 120 mg, 120 mg BID × 14 Days, Day 14, read-out: AUC(0-12), Mean) of 3990 ng·h/mL. The AUC(0-t) ([1]; human, plasma, oral, 120 mg, 120 mg BID × 14 Days, Day 14, read-out: AUC(0-24), Mean) was 7990 ng·h/mL, the Cmax ([1]; human, plasma, oral, 120 mg, 120 mg BID × 14 Days, Day 14, read-out: Cmax, Mean) was 887 ng/mL and the concentration at 120 h [1, 3] was 165 ng/mL. For the same compound, the concentration at 132 h [1, 3] was 90.6 ng/mL, the concentration at 144 h [1, 3] was 125 ng/mL and the concentration at 156 h [1, 3] was 67.2 ng/mL. The concentration at 168 h [1, 3] was 164 ng/mL, the concentration at 192 h [1, 3] was 156 ng/mL and the concentration at 288 h [1, 3] was 136 ng/mL. It also gave a concentration at 300 h [1, 3] of 88 ng/mL, a concentration at 312 h [1, 3] of 173 ng/mL and a concentration at 324 h [1, 3] of 76.6 ng/mL. The Cmax ([1]; human, plasma, oral, 120 mg, 120 mg BID, read-out: Cmax) was under 1000 ng/mL, the Tmax ([1]; human, plasma, oral, 200 mg, 200 mg BID × 14 Days, Day 1) was 1.63 h and the AUC(0-t) ([1]; human, plasma, oral, 200 mg, 200 mg BID × 14 Days, Day 1, read-out: AUC(0-12), Mean) was 1820 ng·h/mL. The Cmax ([1]; human, plasma, oral, 200 mg, 200 mg BID × 14 Days, Day 1, read-out: Cmax, Mean) was 440 ng/mL, the Tmax ([1]; human, plasma, oral, 200 mg, 200 mg BID × 14 Days, Day 7) was 2.06 h and the AUC(0-t) ([1]; human, plasma, oral, 200 mg, 200 mg BID × 14 Days, Day 7, read-out: AUC(0-12), Mean) was 9350 ng·h/mL. The AUC(0-t) ([1]; human, plasma, oral, 200 mg, 200 mg BID × 14 Days, Day 7, read-out: AUC(0-24), Mean) was 18700 ng·h/mL, the Cmax ([1]; human, plasma, oral, 200 mg, 200 mg BID × 14 Days, Day 7, read-out: Cmax, Mean) was 1870 ng/mL and the Tmax ([1]; human, plasma, oral, 200 mg, 200 mg BID × 14 Days, Day 14) was 1.81 h. The AUC(0-t) ([1]; human, plasma, oral, 200 mg, 200 mg BID × 14 Days, Day 14, read-out: AUC(0-12), Mean) was 8240 ng·h/mL, the AUC(0-t) ([1]; human, plasma, oral, 200 mg, 200 mg BID × 14 Days, Day 14, read-out: AUC(0-24), Mean) was 16500 ng·h/mL and the Cmax ([1]; human, plasma, oral, 200 mg, 200 mg BID × 14 Days, Day 14, read-out: Cmax, Mean) was 1630 ng/mL. The concentration at 120 h [1, 4] was 431 ng/mL, the concentration at 132 h [1, 4] was 241 ng/mL and the concentration at 144 h [1, 4] was 385 ng/mL. It also gave a concentration at 156 h [1, 4] of 241 ng/mL, a concentration at 168 h [1, 4] of 381 ng/mL and a concentration at 192 h [1, 4] of 377 ng/mL. The concentration at 288 h [1, 4] was 376 ng/mL, the concentration at 300 h [1, 4] was 272 ng/mL and the concentration at 312 h [1, 4] was 415 ng/mL. The concentration at 324 h [1, 4] was 235 ng/mL, the concentration at 12 hr ([1]; human, plasma, oral, 200 mg, 200 mg BID, all 12 hr (evening) troughs, read-out: Mean C(12), steady-state trough) was 247 ng/mL and the Cmax ([1]; human, plasma, oral, 200 mg, 200 mg BID, read-out: Cmax) was under 2000 ng/mL. For the same compound, the C0 at 0 h ([1]; human, plasma, oral, 40 mg BID, all 0 hr (morning) troughs, read-out: Mean C(0), steady-state trough) was 23.4 ng/mL, the C0 at 0 hr ([1]; human, plasma, oral, 80 mg BID, all 0 hr (morning) troughs, read-out: Mean C(0), steady-state trough) was 83.7 ng/mL and the C0 at 0 hr ([1]; human, plasma, oral, 120 mg BID, all 0 hr (morning) troughs, read-out: Mean C(0), steady-state trough) was 153 ng/mL. The C0 at 0 hr ([1]; human, plasma, oral, 200 mg BID, all 0 hr (morning) troughs, read-out: Mean C(0), steady-state trough) was 392 ng/mL, the diurnal metabolic pattern ([1]; humans, BID dosing, C(0) morning vs C(12) evening) was “exhibits a diurnal metabolic pattern” and the “% AUEC0-12” value ([2]; 120 mg BID) was 98.6%. The DURATION0-12 ([2]; 120 mg BID) was 11.6 h, the “% AUEC0-12” value ([2]; 200 mg BID) was 99.3% and the DURATION0-12 ([2]; 200 mg BID) was 11.9 h. The inhibition at 120 mg ([2]; Homo sapiens, 120 mg BID and 200 mg BID, read-out: calculated percent inhibition across 0 h and 12 h time points) was over 90%, the EC50 ([2]; Homo sapiens, Emax model, multiple-dose cohorts) was 0.0143 µg/mL (≈ 0.0237 µM) and the EC50 [2, 5] was 0.0192 µg/mL (≈ 0.0319 µM). For the same compound, the EC90 [2, 5] was 0.0669 µg/mL (≈ 0.111 µM).
